Laboratory results from patent US20110263696A1, “PROANTHOCYANIDINS FROM CINNAMON AND ITS WATER SOLUBLE EXTRACT INHIBIT TAU AGGREGATION” (priority 2007, published 2011).

What was measured:
[1] = system: tau filaments; experiment: Transmission electron microscopy of tau filaments; assay type: biochemical; details: aggregating conditions
Description: In one illustrative embodiment of the invention, transmission electron microscopy, is a highly desirable technique for studies of aggregation with heparin and water or with heparin and purified proanthocyanidin or cinnamon extracts from Cinnamomum zeylanicum, Cinnamomum cassia, or Cinnamomum loueirii. It provides definition of what the aggregates actually are, e.g., filaments and their abundance, sizes, and shapes.

[2] = system: adipocyte cells; details: 0.1 mg/ml PA trimer; Graves et al. 2001; cited from earlier work

Sequence of tau filaments (P10636 572-758 limits assumed): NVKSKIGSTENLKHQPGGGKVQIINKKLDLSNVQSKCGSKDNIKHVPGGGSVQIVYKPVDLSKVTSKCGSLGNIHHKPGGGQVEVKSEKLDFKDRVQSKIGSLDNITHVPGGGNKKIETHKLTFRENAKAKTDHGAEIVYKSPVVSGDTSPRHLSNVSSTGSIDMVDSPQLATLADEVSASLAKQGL

## A-linked proanthocyanidin trimer [A-type trimer]
[1]
  Formation of tau filaments by transmission electron microscopy: inhibited
[2]
  Glucose uptake: increase in glucose uptake
